The values below come from patent publication US7214663B2, “Tripeptide prodrug compounds” (Medarex, Inc., priority 2001, dated 2007).

Usually IC50 stands for the concentration that gives 50% inhibition. Low values mean inhibition by little substance, high ones a need for much substance. Broadly, the AUC is concentration integrated over time.

The nature of data set [1]: in vivo. The settings on record: female, mouse, iv.
The test system of data set [2] is human colon carcinoma (LS174T). In words: LS174T xenograft efficacy study. Conditions: doxorubicin-insensitive model.
Experimental: Healthy young female nude mice were subcutaneously implanted with chunks of LS174T. […] Tumor size and body weights were measured twice weekly for up to 60 days.
Data set [3] is described as follows: SD-MTD studies, 60 days, normal mice (Example 14). The settings on record: mouse, in vivo; for MTD: Table 12, re-analyzed data and new data. The procedure:
In the single dose Maximum Tolerated Dose (SD-MTD) studies, groups of normal mice were administered intravenous bolus doses of the prodrug. The mice were observed daily for 60 days and body weights measured twice weekly. The SD-MTD was estimated to be equal to the highest dose that produced no death in mice after 60 days.

Data set [4] relates to human colon carcinoma (HT-29). In words: HT-29 xenograft efficacy study. The text has this:
Healthy young male nude mice were subcutaneously injected with 5 million of HT-29 cells.

The next data set deals with Namalwa cells (CD10pos). In words: cells. Conditions: 24 hours, 3H-thymidine. The class given is cell-based, human. The procedure:
(§1) In addition to LNCaP, a number of B-cell lines, such as Ramos and Namalwa cells express CD10 (CD10^pos cells).
(§2) Suspension cells, BALL-1, Ramos and Namalwa cells were cultured in RPMI media containing 10% heat inactivated fetal calf serum (FCS). On the day of the study, the cells were collected, washed and resuspended at a concentration of 0.5×10^6 cells/ml in RPMI containing 10% FCS. 100 μl of cell suspension was added to 96 well plates. […] Finally 10 μl of a 100 μCi/ml ^3H-thymidine was added per well and the plates were incubated for 24 hours. The plates were harvested using a 96 well Harvester (Packard Instruments) and counted on a Packard Top Count counter. Four parameter logistic curves were fitted to the ^3H-thymidine incorporation as a function of drug molarity using Prism software to determine IC50 values.

Data set [5] can be described thus: Metabolism and clearance of Suc-Met-Ala-Leu-Dox in mice (plasma, urine). The class given is in vivo, mouse. The procedure:
Plasma samples were obtained at 1 or 4 hours, and urine was collected at 2 and 24 hours post administration. Levels of the prodrug and metabolites were measured by LC-MS with UV detection of doxorubicin.

Data set [6] is described as follows: Metabolism and clearance of Suc-Leu-Ala-Leu-Dox in mice (plasma, urine). In kind it is in vivo, mouse. The procedure:
Plasma samples of 100 μl were transferred to microcentrifuge tubes (1.5 mL) and an internal standard of daunorubicin (20 μL at 0.5 mg/ml) was added together with acetonitrile (400 μl). The tubes were capped and briefly vortexed followed by centrifugation at 14,000 rpm. 420 μl from each tube was removed and dried in vacuo. Each sample was reconstituted in 65 μl 20 mM aqueous ammonium formate (AF) pH 4.5 buffer containing acetonitrile (20%) prior to analysis by reverse phase liquid chromatography in combination with tandem mass spectrometry (LC MS/MS).
Urine was collected at 2 and 24 hours post administration from pairs of mice in metabolic cages. Urine samples were diluted with AF buffer containing acetonitrile (20%) to give a target analyte concentration within the practical range of the LC MS/MS assay. 30 μl of each diluted sample was placed in a micro centrifuge tube (1.5 ml) and an internal standard of daunorubicin (20 μL at 0.5 mg/ml) was added together with 50 μl of AF buffer containing acetonitrile (20%). Each sample was then analyzed by LC MS/MS.
An Agilent HP1100 HPLC with DAD detector and Chemstation software was coupled to a PE Sciex API 365 mass spectrometer with an electrospray ion source. HPLC was performed on a TSK-Gel Super ODS, […], 4.6×50 mm (TosoHaas) reversed phase column equipped with a […] C18 guard disc (Higgins Analytical) and stainless steel frit (Upchurch Scientific). Chromatography was performed at room temperature. The flow rate was 0.5 ml/min. Injection volume was 50 μl. Gradient elution was performed using a mobile phase of AF buffer with increasing amounts of acetonitrile. The API 365 was operated at 365° C. in a multiple reaction monitoring mode, set to monitor specific analyte parent-daughter ion pairs. Integration of chromatograms was performed by MacQuan software (PE Sciex) and quantitation of each analyte obtained by comparison to previously obtained calibration curves. Daunorubicin was used as an internal standard in all cases.

A short description of data set [7]: in vivo. Conditions: female, ICR, mouse, iv.
For another data set, the system named is tumor-bearing nude mice. In words: Repeat-dose tolerability / repeat dose MTD in tumor bearing mice. The class given is in vivo, mouse. The settings on record: Table 11, five doses at five day or 1 week intervals. The text has this:
(§3) In one study, one animal in each dose group (n=8) was terminated as a possible drug-related toxicity death late in the study, at Days 58 and 57 in the low and high dose-groups respectively. The safety of the compound was evidenced by little body weight loss in either the high or low dose groups (less than 5% of the initial weight) during the 60-day observation period, in surviving animals (FIG. 14). In the other study, both the high and low dose were well tolerated. Only one animal in the high dose group (n=10) had over 15% of body weight loss at the end of the study (Day 61).
(§4) In repeat-dose studies in tumor bearing mice, groups of ten mice were dosed with various amounts of prodrug for a total of five doses at either five day or 1 week intervals. […] Thus, the prodrugs permit a much greater amount of therapeutic agent to be delivered to the body as a whole and thus to the vicinity of the target cell.

The test system of the next data set is normal ICR mice. Kind of data set: Single dose Maximum Tolerated Dose (SD-MTD) study, 49 days, ICR mice (Examples 5 and 6). The procedure: (§5) In a second single dose Maximum Tolerated Dose (SD-MTD) study, groups of five normal ICR mice were administered intravenous bolus doses of Suc-Leu-Ala-Leu-Dox. The mice were observed daily for 49 days and body weights measured twice weekly.
(§6) In a second single dose Maximum Tolerated Dose (SD-MTD) study, groups of five normal ICR mice were administered intravenous bolus doses of Suc-Leu-Ala-Gly-Dox. The mice were observed daily for 49 days and body weights measured twice weekly.

Test in data set [8]: as above
The settings on record: mouse, in vivo, iv, SD-MTD (mg/kg), intravenous bolus, ICR mice, Day 49. The procedure:
as §5, §6

The test system of data set [9] is PC-3 (prostate carcinoma) cells. The settings on record: PC-3, 48 hours, 3H-thymidine incorporation. The procedure: (§7) Adherent cells, LNCaP (prostate carcinoma), HT-29 (colon carcinoma) and PC-3 (prostate carcinoma), were cultured in DMEM media containing 10% heat inactivated fetal calf serum (FCS). On the day of the study the cells were detached from the plate with a trypsin solution. The collected cells were washed and resuspended at a concentration of 0.25×10^6 cells/ml in DMEM containing 10% FCS. 100 μl of cell suspension were added to 96 well plates and the plates were incubated for 3 hours to allow the cells to adhere. […] The plates were then incubated for 24 hours, pulsed with 10 μl of a 100 μCi/ml ^3H-thymidine and incubated for an additional 24 hours (total incubation time 48 hours). The plates were harvested using a 96 well Harvester (Packard Instruments) and counted on a Packard Top Count Counter. Four parameter logistic curves were fitted to the ^3H-thymidine incorporation as a function of drug molarity using Prism software to determine IC50 values.
(§8) Prostate carcinoma cells, LNCaP and PC-3 cells or colon carcinoma cells HT-29, were incubated with increasing concentration of the indicated compounds for 48 hours and cellular proliferation was measured using the ^3H-thymidine assay.
Background: Dividing cells build labelled thymidine or BrdU into new DNA.

In data set [10] the test system is LNCaP (prostate carcinoma) cells. Conditions: 48 hours, 3H-thymidine incorporation. The procedure:
as §7, §8

Data set [11] has as its system HT-29 (colon carcinoma) cells. Conditions: HT29, 48 hours, 3H-thymidine incorporation. The procedure:
as §7, §8

Data set [12] is described as follows: Repeat-dose tolerability / repeat dose MTD in tumor bearing mice. In kind it is in vivo, mouse. Conditions: mouse, in vivo, Table 12, re-analyzed.
From the text: as §3, §4

Another data set concerns BALL-1 cells (CD10neg). The class given is cell-based, human. Conditions: Ball-1 (CD10neg), 24 hours, 3H-thymidine. The procedure: as §1, §2
A further data set concerns Ramos cells (CD10pos). The class given is cell-based, human. Conditions: 24 hours, 3H-thymidine. The procedure:
as §1, §2

Setting [13] is: 4.0 mg/kg every 7 days for 5 doses.
Setting [14] is: after single intravenous 120 mg/kg Suc-Met-Ala-Leu-Dox.
Where [15] appears, read: after single intravenous 117 mg/kg Suc-Leu-Ala-Leu-Dox.

The structures appear in SMILES notation. Some results are limits rather than exact numbers.

As for `COc1cccc2c1C(=O)c1c(O)c3c(c(O)c1C2=O)C[C@@](O)(C(=O)CO)C[C@@H]3O[C@H]1C[C@H](N)[C@H](O)[C@H](C)O1` [Doxorubicin, reference compound], the MTD at 28 days in the data set “in vivo [1]” is 4 to 8 mg/kg. Besides, the “anti-tumor activity in LS174T xenograft” value in data set [2] is “virtually inactive”. In addition, the MTD at 60 days in [3] (Table 11, doses as first stated, intravenous bolus, 60 days) came to 4 mg/kg. Moreover, the “Calculated Mean Day of Survival” value was 30.0 ± 3.7 days in data set [4] (setting [13]) and 30 days in data set [4] (4.0 mg/kg every 7 days for 5 doses, listed as doxorubicin). The “Extension of Mean Day of Survival over controls” value in data set [4] (setting [13]) was 16.7%. The “Number of Long Term Survivors” value in data set [4] (setting [13]) is 0/10. Moreover, the IC50 in the data set with Namalwa cells (CD10pos) (Homo sapiens) was 0.01 µM. Further, the results for the “Urine 2 hr, percent of administered dose” value in data set [5] (setting [14]) and in [6] (setting [15]) were 0.30% and 0.05%, respectively. For the same compound, the entries for the “Urine 24 hr, percent of administered dose” value in data set [5] (setting [14]) and in data set [6] (setting [15]) were 0.61% and 0.15%, respectively. Further, the “Plasma 1 hr, percent of administered dose” value turned out to be 0.002% in data set [5] (female, mouse, in vivo, iv, 120 mg/kg, 1 h) and 0.002% in data set [6] (female, mouse, in vivo, iv, 117 mg/kg, 1 h). Besides, the “Plasma 4 hr, percent of administered dose” value in data set [5] (female, mouse, in vivo, iv, 120 mg/kg, 4 h) is 0.002%; in data set [6] (female, mouse, in vivo, iv, 117 mg/kg, 4 h), 0.000%. Moreover, the AUC in the data set “in vivo [7]” is 3.3 µM·h. Moreover, the “Optimal Efficacy Repeat Dose (mg/kg), value in parentheses (doxorubicin equivalent dose)” value in the data set with tumor-bearing nude mice is given as 4 (4) mg/kg. Moreover, the “Optimal Efficacy Repeat Dose (mg/kg)” value with tumor-bearing nude mice (tumor bearing mice, 60 days) is reported as 4 (4) mg/kg.
On to `COc1cccc2c1C(=O)c1c(O)c3c(c(O)c1C2=O)C[C@@](O)(C(=O)CO)C[C@@H]3O[C@H]1C[C@H](NC(=O)CNC(=O)[C@H](C)NC(=O)[C@H](CC(C)C)NC(=O)CCC(=O)O)[C@H](O)[C@H](C)O1` [Suc-Leu-Ala-Gly-Dox], for which the “acute toxicity, within 24 hours” value with normal ICR mice (any dose level) is recorded as “no acute toxicity”. Also, the “mortalities, morbidity or significant body weight loss over the 49 day study” value in the data set on normal ICR mice (any dose level up to 220 mg/kg) was “no mortalities, morbidity or significant body weight loss”. In addition, in the data set on normal ICR mice (molar basis versus doxorubicin alone), the “SD-MTD Molar Ratio (Dox =)” value is 8.8. Moreover, the MTD is ≥ 220 mg/kg in data set [8]; > 141 mg/kg in data set [3] (SD MTD (mg/kg), value in parentheses: doxorubicin equivalent dose); > 220 mg/kg in data set [3] (read-out: SD MTD); > 70 mg/kg in data set [12] (Repeat Dose MTD (mg/kg), value in parentheses: doxorubicin equivalent dose, Q 5 D × 5 or Q 7 D × 5); > 110 mg/kg in data set [12] (Q 5 D × 5 or Q 7 D × 5 as given per compound, read-out: Repeat Dose MTD). For the same compound, the “Toxicity (Weight Loss > 20%)” value in data set [4] (40 mg/kg every 7 days for 5 doses) and in data set [4] (67 mg/kg every 7 days for 5 doses) was 0/7 throughout. Further, the IC50 worked out at 17.3 µM in the data set on Namalwa cells (CD10pos); 39 µM in data set [9]; 15 µM in [10]; 32 µM in data set [11]; 23.3 µM in the data set on BALL-1 cells (CD10neg); 22.7 µM in the data set with Ramos cells (CD10pos). Besides, in the data set “in vivo [7]” (100 umol/kg), the exposure (AUC) amounted to 310 µM·h.
